Patent US12378241B2, “Pyridine derivative as FGFR and VEGFR dual inhibitors” (CGeneTech (Suzhou,China) CO., Ltd., priority 2019, dated 2025)
Structures can show the parent of a compound that is named as a salt. Where two headings read alike, the source gives them in different places.

Tests used:
human FGFR1 = human FGFR1 (Homo sapiens (Human), UniProt P11362); experiment: 33P isotope-labeled kinase activity test (Reaction Biology Corp), FGFR1; type: biochemical; conditions: ATP 5 μM
Method: (§1) The IC50 value was determined using ^33P isotope-labeled kinase activity test (Reaction Biology Corp) to evaluate the inhibitory ability of the compounds to be tested on human FGFR1, FGFR2 and VEGFR2.
(§2) Buffer conditions: 20 mM Hepes (pH 7.5), 10 mM MgCl2, 1 mM EGTA, 0.02% Brij35, 0.02 mg/mL BSA, 0.1 mM Na3VO4, 2 mM DTT, 1% DMSO.
(§3) Test steps: At room temperature, the compounds to be tested were dissolved in DMSO to prepare a 10 mM solution for use. The substrate was dissolved in the newly-prepared buffer, and the kinase to be tested was added thereto and mixed well. The DMSO solution in which the compounds to be tested were dissolved was added to the above-mentioned homogeneous reaction mixture using acoustic technology (Echo 550). […] After incubating for 15 minutes, ^33P-ATP (activity: 0.01 μCi/μL, with corresponding concentration listed in Table 4) was added to the reaction mixture to start the reaction. […] The kinase activity data was expressed by comparing the kinase activity of the groups containing the compounds to be tested with that of the blank group (containing only DMSO).

[1] = Evaluation of the pharmacokinetics in female Balb/c mice (IV and PO); type: in vivo; conditions: for Tlast / AUC(0-inf) / AUC(0-t) / clearance / half-life / MRT last / Vd / bioavailability / Tmax / C0 / Cmax: female Balb/c mice; for AUC(0-inf) / AUC(0-t) / clearance / half-life / MRT last / Vd / bioavailability / Tmax / C0 / Cmax: mouse, plasma; for MRT last: read-out: MRT0-last; for Vd: read-out: Vdss; for bioavailability: read-out: F (bioavailability)
Method: […] […] About 30 μL blood samples were collected from the jugular vein at 0.0833, 0.25, 0.5, 1.0, 2.0, 4.0, 8.0, 24 h after administration and from the tail vein at 0.25, 0.5, 1.0, 2.0, 4.0, 8.0, 24 h after administration, and the blood samples were put in an anticoagulation tube containing EDTA-K2, the plasma was separated by centrifugation. The LC-MS/MS method was used to determine the blood drug concentration, the WinNonlin™ Version 6.3 (Pharsight, Mountain View, CA) pharmacokinetic software was used to calculate the relevant pharmacokinetic parameters by the non-compartmental model linear logarithmic ladder method.

human FGFR2 = human FGFR2 (Homo sapiens (Human), UniProt P21802); experiment: 33P isotope-labeled kinase activity test (Reaction Biology Corp), FGFR2; type: biochemical; conditions: ATP 5 μM
Chain of human FGFR2 (P21802 22-821): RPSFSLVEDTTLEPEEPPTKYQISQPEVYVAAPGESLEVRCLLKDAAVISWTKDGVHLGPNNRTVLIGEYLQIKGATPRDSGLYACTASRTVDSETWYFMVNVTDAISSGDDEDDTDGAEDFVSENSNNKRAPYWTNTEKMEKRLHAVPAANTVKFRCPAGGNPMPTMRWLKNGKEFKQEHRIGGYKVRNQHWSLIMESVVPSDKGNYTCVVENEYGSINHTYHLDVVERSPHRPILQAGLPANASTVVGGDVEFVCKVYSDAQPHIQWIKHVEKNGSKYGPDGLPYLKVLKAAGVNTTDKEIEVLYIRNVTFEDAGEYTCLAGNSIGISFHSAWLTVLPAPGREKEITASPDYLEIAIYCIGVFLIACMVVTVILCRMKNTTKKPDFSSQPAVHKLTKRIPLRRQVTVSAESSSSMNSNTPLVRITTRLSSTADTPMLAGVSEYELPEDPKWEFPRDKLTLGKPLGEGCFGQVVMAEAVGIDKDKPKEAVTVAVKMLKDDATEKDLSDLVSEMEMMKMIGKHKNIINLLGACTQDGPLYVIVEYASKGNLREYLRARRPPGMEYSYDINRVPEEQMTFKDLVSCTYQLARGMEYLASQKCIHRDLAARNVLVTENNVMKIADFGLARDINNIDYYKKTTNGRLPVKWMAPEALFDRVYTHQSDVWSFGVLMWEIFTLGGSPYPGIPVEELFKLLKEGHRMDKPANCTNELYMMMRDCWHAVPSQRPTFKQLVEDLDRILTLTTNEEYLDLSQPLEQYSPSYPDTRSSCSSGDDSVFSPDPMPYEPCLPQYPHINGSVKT
Method: as §1, §2, §3

human VEGFR2 = human VEGFR2 (Homo sapiens (Human), UniProt P35968); experiment: 33P isotope-labeled kinase activity test (Reaction Biology Corp), VEGFR2; type: biochemical; conditions: ATP 10 μM
Chain of human VEGFR2 (P35968 20-1356): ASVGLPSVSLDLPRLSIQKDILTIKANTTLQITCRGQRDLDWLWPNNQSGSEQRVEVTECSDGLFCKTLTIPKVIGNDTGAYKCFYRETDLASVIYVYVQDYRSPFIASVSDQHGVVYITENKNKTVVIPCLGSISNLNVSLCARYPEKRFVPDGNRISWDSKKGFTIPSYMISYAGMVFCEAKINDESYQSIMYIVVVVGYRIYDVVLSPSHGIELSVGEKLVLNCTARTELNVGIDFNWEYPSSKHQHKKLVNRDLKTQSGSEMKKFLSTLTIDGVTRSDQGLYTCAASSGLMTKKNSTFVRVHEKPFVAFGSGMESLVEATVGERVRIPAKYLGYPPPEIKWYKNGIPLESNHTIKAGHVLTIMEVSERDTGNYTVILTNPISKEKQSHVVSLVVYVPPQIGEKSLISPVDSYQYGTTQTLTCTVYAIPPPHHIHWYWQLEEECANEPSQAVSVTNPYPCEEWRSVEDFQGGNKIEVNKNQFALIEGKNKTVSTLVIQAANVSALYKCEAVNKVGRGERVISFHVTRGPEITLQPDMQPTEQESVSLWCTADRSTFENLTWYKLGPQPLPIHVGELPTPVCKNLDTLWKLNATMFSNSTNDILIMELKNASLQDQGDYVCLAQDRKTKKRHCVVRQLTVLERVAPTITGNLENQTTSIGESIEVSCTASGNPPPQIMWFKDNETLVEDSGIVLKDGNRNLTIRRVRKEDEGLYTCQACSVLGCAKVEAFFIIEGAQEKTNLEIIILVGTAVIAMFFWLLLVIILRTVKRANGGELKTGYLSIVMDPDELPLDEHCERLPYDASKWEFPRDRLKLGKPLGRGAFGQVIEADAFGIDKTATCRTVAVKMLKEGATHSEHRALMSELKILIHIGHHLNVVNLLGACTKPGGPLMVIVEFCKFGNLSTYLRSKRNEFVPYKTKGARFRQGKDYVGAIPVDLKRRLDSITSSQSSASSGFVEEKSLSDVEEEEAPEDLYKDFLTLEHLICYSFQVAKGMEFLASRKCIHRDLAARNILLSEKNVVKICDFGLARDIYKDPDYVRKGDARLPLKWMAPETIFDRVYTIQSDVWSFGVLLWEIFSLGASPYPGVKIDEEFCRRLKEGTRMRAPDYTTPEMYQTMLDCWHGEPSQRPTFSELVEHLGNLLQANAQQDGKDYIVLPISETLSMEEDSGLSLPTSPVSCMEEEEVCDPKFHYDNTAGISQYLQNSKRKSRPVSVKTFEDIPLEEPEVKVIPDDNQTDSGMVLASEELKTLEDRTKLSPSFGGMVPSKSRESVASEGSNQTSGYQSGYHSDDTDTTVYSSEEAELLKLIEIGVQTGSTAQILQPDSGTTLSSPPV
Method: as §1, §2, §3

[2] = system: human gastric cancer SNU-16; experiment: Anti-tumor activity in mouse subcutaneous xenograft tumor model of human gastric cancer SNU-16; type: in vivo, nude mice; conditions: PO 10/20/40 mg/kg QD (20 mg/kg from day 8, 40 mg/kg from day 17)
Method: To study the anti-tumor effect of the compounds of the present disclosure in a mouse subcutaneous xenograft tumor model of human gastric cancer SNU-16.
Preparation of tumor tissues: SNU-16 cells were routinely cultured in an RPMI-1640 culture medium containing 10% fetal bovine serum under the conditions of 5% CO2, 37° C. and saturated humidity. According to cell growth, the cells were passaged or refilled 1 to 2 times a week with a passage ratio of 1:3 to 1:4.
SNU-16 cells at the logarithmic growth phase were collected, counted and then resuspended in a 50% serum-free RPMI-1640 culture medium and 50% Matrigel, and cell concentration was adjusted to 4×10^7 cells/mL; the cells were placed in an ice box, and the cell suspension was suctioned with a 1 mL syringe, and subcutaneously injected into the anterior right axillary of nude mice, each animal was inoculated with 200 μL (8×10^6 cells/mouse) to establish a SNU-16 xenograft model. The animal status was observed regularly, and the tumor diameter was measured with an electronic vernier caliper. […]
3) The tumor diameter was measured twice a week to calculate the tumor volume, and the animal body weight was weighed and recorded. […]
The anti-tumor efficacy of the compounds was evaluated by TGI (%) or relative tumor proliferation rate T/C (%). […] The relative tumor volume (RTV) was calculated according to the results of the tumor measurement. […]

Chain of human FGFR1 (P11362 22-822): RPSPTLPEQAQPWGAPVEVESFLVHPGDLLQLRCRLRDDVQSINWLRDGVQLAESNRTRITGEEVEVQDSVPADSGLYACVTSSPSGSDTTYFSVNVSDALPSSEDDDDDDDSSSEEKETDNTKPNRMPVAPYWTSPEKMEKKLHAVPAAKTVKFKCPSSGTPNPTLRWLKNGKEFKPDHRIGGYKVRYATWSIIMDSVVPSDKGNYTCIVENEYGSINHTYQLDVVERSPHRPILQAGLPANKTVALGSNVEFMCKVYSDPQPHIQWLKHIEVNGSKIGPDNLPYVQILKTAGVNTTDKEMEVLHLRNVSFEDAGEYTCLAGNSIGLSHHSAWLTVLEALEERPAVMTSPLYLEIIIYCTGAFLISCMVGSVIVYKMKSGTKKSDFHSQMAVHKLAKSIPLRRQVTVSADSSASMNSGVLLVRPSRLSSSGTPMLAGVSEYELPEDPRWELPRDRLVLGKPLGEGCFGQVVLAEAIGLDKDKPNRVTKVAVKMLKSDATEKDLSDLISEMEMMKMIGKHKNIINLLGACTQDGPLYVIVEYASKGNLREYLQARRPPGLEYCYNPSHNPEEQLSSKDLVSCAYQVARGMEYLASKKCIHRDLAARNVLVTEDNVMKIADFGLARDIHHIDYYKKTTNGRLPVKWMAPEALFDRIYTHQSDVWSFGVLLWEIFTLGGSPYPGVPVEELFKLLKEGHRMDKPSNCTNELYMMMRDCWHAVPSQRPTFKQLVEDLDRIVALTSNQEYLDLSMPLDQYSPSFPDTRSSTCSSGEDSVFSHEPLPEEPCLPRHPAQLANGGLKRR

SMILES: Cn1cc(-c2ccn3c(-c4cc(NS(=O)(=O)C5CC5)nc(-c5ccc(F)cc5F)c4)cnc3c2)cn1 [Trifluoroacetate salt of compound 1]
- IC50 (human FGFR1): 4.55 nM
- Tlast ([1]; IV 2 mg/kg): 8.00 h
- AUC of intravenous drug exposure compared with the trifluoroacetate of control compound A ([1]; IV, mice): doubled
- plasma clearance rate compared with the trifluoroacetate of control compound A ([1]; IV, mice): nearly decreased the plasma clearance rate by 1 time
- Tlast ([1]; PO 10 mg/kg): 8.00 h
- oral absorption drug exposure compared with the trifluoroacetate of control compound A ([1]; PO, mice): nearly doubled
- AUC(0-inf) ([1]; IV 2 mg/kg): 13.7 µM·h
- AUC(0-t) ([1]; IV 2 mg/kg): 13.3 µM·h
- clearance ([1]; IV 2 mg/kg): 4.82 mL/min/kg
- half-life ([1]; IV 2 mg/kg): 1.6 h
- MRT last ([1]; IV 2 mg/kg): 2.07 h
- Vd ([1]; IV 2 mg/kg): 0.667 L/kg
- bioavailability ([1]; PO 10 mg/kg vs IV 2 mg/kg): 39.4%
- AUC(0-inf) ([1]; PO 10 mg/kg): 26.9 µM·h
- AUC(0-t) ([1]; PO 10 mg/kg): 23.6 µM·h
- Tmax ([1]; PO 10 mg/kg): 1 h
- half-life ([1]; PO 10 mg/kg): 2.5 h
- MRT last ([1]; PO 10 mg/kg): 3.12 h
- C0 ([1]; IV 2 mg/kg): 7530 nM
- Cmax ([1]; PO 10 mg/kg): 5300 nM
- IC50 (human FGFR2): 2.86 nM
- IC50 (human VEGFR2): 3.82 nM

SMILES: CCS(=O)(=O)Nc1cc(-c2cnc3cc(-c4cnn(C)c4)ccn23)cc(-c2ccc(F)cc2F)n1 [Trifluoroacetate salt of compound 6]
- IC50 (human FGFR2): 7.36 nM
- IC50 (human VEGFR2): 8.09 nM

SMILES: CCCS(=O)(=O)Nc1cc(-c2cnc3cc(-c4cnn(C)c4)ccn23)cc(-c2ccc(F)cc2F)n1 [Trifluoroacetate salt of compound 8]
- IC50 (human FGFR2): 7.18 nM
- IC50 (human VEGFR2): 14.7 nM

SMILES: Cn1cc(-c2ccn3c(-c4cc(NC5CCOCC5)nc(-c5ccc(F)cc5F)c4)cnc3c2)cn1 [Compound 10]
- IC50 (human FGFR2): 17.1 nM

SMILES: Cn1cc(-c2ccn3c(-c4cc(NCC5COC(C)(C)O5)nc(-c5ccc(F)cc5F)c4)cnc3c2)cn1 (stereo not drawn) [Compound 11]
- IC50 (human FGFR2): 2.27 nM
- IC50 (human VEGFR2): 7.57 nM

SMILES: Cc1cc(F)ccc1-c1cc(-c2cnc3cc(-c4cnn(C)c4)ccn23)cc(NS(=O)(=O)C2CC2)n1 [Trifluoroacetate salt of compound 2]
- IC50 (human FGFR2): 46.1 nM
- IC50 (human VEGFR2): 67.3 nM

SMILES: Cn1cc(-c2ccc3c(c2)ncn3-c2cc(NS(=O)(=O)C3CC3)cc(-c3ccc(F)cc3F)c2)cn1 [Trifluoroacetate of compound A, reference compound]
- IC50 (human FGFR1): 22.3 nM
- Tlast ([1]; IV 0.2 mg/kg): 4.00 h
- Tlast ([1]; PO 1 mg/kg): 8.00 h
- AUC(0-inf) ([1]; IV 0.2 mg/kg): 0.717 µM·h
- AUC(0-t) ([1]; IV 0.2 mg/kg): 0.663 µM·h
- clearance ([1]; IV 0.2 mg/kg): 9.2 mL/min/kg
- half-life ([1]; IV 0.2 mg/kg): 1.08 h
- MRT last ([1]; IV 0.2 mg/kg): 1.21 h
- Vd ([1]; IV 0.2 mg/kg): 0.85 L/kg
- bioavailability ([1]; PO 1 mg/kg vs IV 0.2 mg/kg): 40.3%
- AUC(0-inf) ([1]; PO 1 mg/kg): 1.44 µM·h
- AUC(0-t) ([1]; PO 1 mg/kg): 1.41 µM·h
- Tmax ([1]; PO 1 mg/kg): 1 h
- half-life ([1]; PO 1 mg/kg): 1.4 h
- MRT last ([1]; PO 1 mg/kg): 2.76 h
- C0 ([1]; IV 0.2 mg/kg): 563 nM
- Cmax ([1]; PO 1 mg/kg): 469 nM

SMILES: CCOC(=O)Nc1cc(-c2cnc3cc(-c4cnn(C)c4)ccn23)cc(-c2ccc(F)cc2C)n1 [Trifluoroacetate salt of compound 4]
- IC50 (human FGFR2): 45.2 nM
- IC50 (human VEGFR2): 24.3 nM

SMILES: CCOC(=O)Nc1cc(-c2cnc3cc(-c4cnn(C)c4C)ccn23)cc(-c2ccc(F)cc2F)n1 [Trifluoroacetate salt of compound 12]
- IC50 (human FGFR2): 19.4 nM
- IC50 (human VEGFR2): 9.27 nM

SMILES: Cc1c(-c2ccn3c(-c4cc(NS(C)(=O)=O)nc(-c5ccc(F)cc5F)c4)cnc3c2)cnn1C [Trifluoroacetate salt of compound 13]
- IC50 (human VEGFR2): 11.1 nM

SMILES: Cn1cc(-c2ccn3c(-c4cc(NCC(C)(C)O)nc(-c5ccc(F)cc5F)c4)cnc3c2)cn1 [Compound 9]
- IC50 (human FGFR2): 4.92 nM
- IC50 (human VEGFR2): 3.73 nM

SMILES: Cn1cc(-c2ccn3c(-c4cc(NS(C)(=O)=O)nc(-c5ccc(F)cc5F)c4)cnc3c2)cn1 [Trifluoroacetate salt of compound 7]
- T/C (%) (relative tumor proliferation rate) D25 [2]: 31%
- TGI (%) (tumor growth inhibition rate) D25 [2]: 69%
- Tlast ([1]; IV 0.2 mg/kg): 4.00 h
- Tlast ([1]; PO 1 mg/kg): 8.00 h
- AUC(0-inf) ([1]; IV 0.2 mg/kg): 0.871 µM·h
- AUC(0-t) ([1]; IV 0.2 mg/kg): 0.81 µM·h
- clearance ([1]; IV 0.2 mg/kg): 7.96 mL/min/kg
- half-life ([1]; IV 0.2 mg/kg): 0.968 h
- MRT last ([1]; IV 0.2 mg/kg): 1.08 h
- Vd ([1]; IV 0.2 mg/kg): 0.661 L/kg
- bioavailability ([1]; PO 1 mg/kg vs IV 0.2 mg/kg): 59.3%
- AUC(0-inf) ([1]; PO 1 mg/kg): 2.58 µM·h
- AUC(0-t) ([1]; PO 1 mg/kg): 2.53 µM·h
- Tmax ([1]; PO 1 mg/kg): 1 h
- half-life ([1]; PO 1 mg/kg): 1.33 h
- MRT last ([1]; PO 1 mg/kg): 2.35 h
- C0 ([1]; IV 0.2 mg/kg): 735 nM
- Cmax ([1]; PO 1 mg/kg): 973 nM
- IC50 (human FGFR2): 3.22 nM
- IC50 (human VEGFR2): 2.94 nM

SMILES: CCOC(=O)Nc1cc(-c2cnc3cc(-c4cnn(C)c4)ccn23)cc(-c2ccc(F)cc2F)n1 [Trifluoroacetate salt of compound 3]
- IC50 (human FGFR2): 3.26 nM
- IC50 (human VEGFR2): 1.99 nM

SMILES: Cn1cc(-c2ccn3c(-c4cc(NS(C)(=O)=O)cc(-c5ccc(F)cc5F)n4)cnc3c2)cn1 [Formate of compound C, reference compound]
- IC50 (human FGFR1): 724 nM
- IC50 (human VEGFR2): 5580 nM

SMILES: Cn1cc(-c2ccc3c(c2)ncn3-c2cc(NS(C)(=O)=O)cc(-c3ccc(F)cc3F)c2)cn1 [Trifluoroacetate of compound B, reference compound]
- IC50 (human FGFR2): 22.6 nM
- IC50 (human VEGFR2): 11.8 nM
